In patent US11149005B2, “Organic amine ester derivative drug of 2-(α-hydroxypentyl)benzoic acid” (YAOPHARMA CO., LTD., priority 2018, dated 2021):
Converted amounts (≈) assume the structure as drawn. Where two headings read alike, the source gives them in different places.

Columns and labels:
[1] = Solubility in pH 1.0, 4.5, 6.8 buffer solutions and pure water (supersaturated solution, 37° C., HPLC); format: physicochemical; settings: for solubility: ultrapure water, thermodynamic from solid, 37° C. water bath overnight, read-out: apparent solubility in pure water
Protocol: 1. The experiment process A pH 1.0 HCl solution, a pH 4.5 acetate buffer solution, a pH 6.8 phosphate buffer solution and 5 mL of ultrapure water are added into graduated test tubes having stoppers. Small amounts of the test samples (butyphthalide (NBP), DB-1 hydrochloride or DB-2 hydrochloride) are weighed and added in batches. After each batch of the adding, intense shaking is performed for 30 seconds (ultrasound is prohibited), the dissolving is observed at any time, and when the test samples are add so that turbid insoluble particles or liquid drops can be seen, finally proper amounts of the test samples are added. The system is placed into a 37° C. water bath and vibrated overnight, to form a supersaturated solution. The supersaturated solution is centrifuged or filtered (the adsorption should be noticed), and 100 μL is fed into HPLC to measure the concentrations of the tested medicines.

[2] = Hygroscopicity: moisture absorption/weight gaining percentage at 25° C., relative humidity 75%; format: physicochemical
Protocol: 1. The Experiment Process
Three samples of each of the sodium salt of 2-(α-hydroxypentyl)benzoic acid, DB-1 and DB-2 are precisely weighed with approximately 0.2 g for each sample, and placed into weighing bottles, and the total masses of each of the samples and its weighing bottle are weighed and recorded. Then the weighing bottles are placed in a closed environment at 25° C. and at a constant humidity with the relative humidity of 75%, their masses are weighed at 6 h, 12 h, 24 h, 48 h, 96 h and 120 h, and the moisture absorption/weight gaining percentages are calculated. The moisture absorption/weight gaining percentages are calculated by using the formula as follows: moisture absorption/weight gaining percentage (%)=(sample mass after dilution—sample mass before dilution)/sample mass before dilution*100%.

[3] = Pharmacokinetics in mice: blood concentration versus time (LC-MS/MS); format: in vivo, Kunming mice; settings: 10 mg/kg butyphthalide or equal moles; for concentration at 5 min / concentration at 1 h: male, Kunming, mouse, plasma
Protocol: (§1) 1. Animal Grouping and Dosage Regimen
(§2) 90 Kunming mice (male; 20±2 g) are randomly grouped into three groups, with 30 mice in each of the groups. The first group is the butyphthalide group, is divided into 6 subgroups (5 mice in each of the subgroups), and is administered with butyphthalide by 10 mg/kg. The secondary group is the DB-1 group, is divided into 6 subgroups (5 mice in each of the subgroups), and is administered with DB-1 of the equal moles to the butyphthalide. The third group is the DB-2 group, is divided into 6 subgroups (5 mice in each of the subgroups), and is administered with DB-2 of the equal moles to the butyphthalide. Before the experiment the mice are fasted and are free to drink water. At 5 min, 15 min, 30 min, 1 h, 2 h and 4 h, all of the groups are taken blood at the orbit and then executed, and the hearts, livers, spleens, lungs, kidneys and brains of the mice are immediately separated, washed by using normal saline, dried by using filter paper, weighed, added normal saline of a certain multiple, homogenized, placed into a −40° C. refrigerator, and refrigerated for use. The whole blood is centrifuged at 4500 r/min for 5 min, and the plasma is sucked and placed into a −40° C. refrigerator for use. The stored tissue homogenates are thawed, and 0.1 mL of each of the tissue homogenates is placed into a 0.5 mL EP tube, and added 0.2 mL of acetonitrile protein for precipitation. The precipitate is treated by vortex shocking for 5 minutes, and centrifuged at 10000 rpm for 10 min, and […] of the supernatant is fed into an LC-MS/MS system, for measuring the concentrations of the tested medicines.

[4] = In-vivo tissue distribution in mice (heart, liver, spleen, lung, kidney, brain); design: species or system Kunming mice; settings: for contents in the brain compared with the sodium salt of 2-(α-hydroxypentyl)benzoic acid (NBP): all detection time points
Protocol: as §1, §2

[5] = Assessment on the brain targeting ability (Re, Ce, DTI relative to NBP, DAS3.2.5); format: in vivo, Kunming mice; settings: mice
Protocol: as §2
The pharmacokinetic parameters are calculated by using the DAS3.2.5 software. Regarding the quantitative assessment on the brain targeting ability of the sodium salt of 2-(α-hydroxypentyl)benzoic acid (NBP), DB-1 hydrochloride and DB-2 hydrochloride, the following parameters are employed: relative uptake ratio (Rebrain), peak concentration ratio (Cebrain) and drug targeting index (DTIbrain), the calculating formulas of which are respectively: Re(brain, DB-1)=(AUCbrain)DB-1/(AUCbrain)NBP CeDB-1=(Cmax,brain)DB-1/(Cmax,brain)NBP DTIDB-1=(AUCbrain/AUCplasma)DB-1/(AUCbrain/AUCplasma)NBP Re(brain, DB-2)=(AUCbrain)DB-2/(AUCbrain)NBP CeDB-2=(Cmax,brain)DB-2/(Cmax,brain)NBP DTIDB-2=(AUCbrain/AUCplasma)DB-2/(AUCbrain/AUCplasma)NBP
The calculation results of the parameters can be seen in Table 2. Regarding DB-1, the brain relative uptake ratio Re is 3.64, the peak concentration ratio Ce is 2.93, and the drug targeting index DTI is 12.45. Regarding DB-2, the brain relative uptake ratio Re is 4.27, the peak concentration ratio Ce is 3.19, and the drug targeting index DTI is 18.08.

[6] = pH 1.0 HCl, pH 4.5 acetate, pH 6.8 phosphate buffer, pure water
[7] = 5 min after intravenous administration
[8] = 1 h after intravenous administration

| Structure (SMILES) | influence of pH on solubility [1, 6] | solubility class in words ([1]; pure water) | solubility ([1]; pure water) | moisture absorption/weight gaining percentage ([2]; 6 h) | moisture absorption/weight gaining percentage ([2]; 12 h) | moisture absorption/weight gaining percentage ([2]; 24 h) | moisture absorption/weight gaining percentage ([2]; 48 h) | moisture absorption/weight gaining percentage ([2]; 96 h) | moisture absorption/weight gaining percentage ([2]; 120 h) | concentration at 5 min [3, 7] | concentration at 1 h [3, 8] | permeation of the blood-brain barrier [4] | contents in the brain compared with the sodium salt of 2-(α-hydroxypentyl)benzoic acid (NBP) [4] | brain relative uptake ratio Re (AUCbrain of compound / AUCbrain of NBP) [5] | drug targeting index DTI ((AUCbrain/AUCplasma) of compound / (AUCbrain/AUCplasma) of NBP) [5] | peak concentration ratio Ce (Cmax,brain of compound / Cmax,brain of NBP) [5] | also measured |
| --- | --- | --- | --- | --- | --- | --- | --- | --- | --- | --- | --- | --- | --- | --- | --- | --- | --- |
| CCCCC(OC(C)=O)c1ccccc1C(=O)OCCN(C)C (stereo not shown) [DB-1] | highest in the pH 1.0 HCl solution | soluble medicines | 20 ± 2.98 mg/mL (≈ 62.3 mM) | 0.42% | 0.65% | 0.88% | 0.93% | 0.97% | 1.03% | 8.68 ± 1.48 µM | 2.98 ± 0.534 µM | can also permeate the blood-brain barrier and enter the brain | significant greater | 3.64 | 12.45 | 2.93 | moisture absorption/weight gaining percentage ([2]; 120 h, listed as DB-1 hydrochloride): 1.03±0.07% |
| CCCCC1OC(=O)c2ccccc21 (racemic) [Butyphthalide (NBP), dl-3-n-butylphthalide, reference compound] |  |  |  |  |  |  |  |  |  |  |  |  |  |  |  |  | apparent solubility in pure water [1]: 0.0734 ± 0.0123 mg/mL; influence of pH on solubility [1]: not obvious; solubility class in words [1]: insoluble medicine |
| CCCCC(OC(C)=O)c1ccccc1C(=O)OCCN1CCCCC1 (stereo not shown) [DB-2] | highest in the pH 1.0 HCl solution | soluble medicines | 11.7 ± 1.89 mg/mL (≈ 32.2 mM) | 0.38% | 0.54% | 0.65% | 0.71% | 0.72% | 0.76% | 6.29 ± 1.2 µM | 1.45 ± 0.657 µM | can also permeate the blood-brain barrier and enter the brain | significant greater | 4.27 | 18.08 | 3.19 | moisture absorption/weight gaining percentage ([2]; 120 h, listed as DB-2 hydrochloride): 0.76±0.06%; accumulated concentration in the brain compared with DB-1 hydrochloride [4]: greater |
| CCCCC(O)c1ccccc1C(=O)[O-].[Na+] (stereo not drawn) [sodium salt of 2-(α-hydroxypentyl)benzoic acid, reference compound] |  |  |  |  |  |  |  |  | 2.49±0.25% |  |  | can permeate the blood-brain barrier and enter the brain |  |  |  |  | blood concentration [3, 7]: 12.243 ± 1.847 µM; blood concentration [3, 8]: 0.547 ± 0.289 µM; contents in the heart, the lung and the brain ([4]; 4 h after administration): too low to be detected |
